Data published in patent US6472530B1, “Benzo-fused dithiepino[6,5-b]pyridines, and related compositions and methods” (Ortho-McNeil Pharmaceutical, Inc., priority 1999, dated 2002).

Target: T1, calcium channel (Oryctolagus cuniculus, UniProt P15381)
T1 construct: from tissue; host or cells: rabbit heart membrane preparation
Test: Assay for Inhibition of Nitrendipine Binding (3H-nitrendipine, heart membranes)
Set-up: species or system rabbit
Settings: Table 1, compounds of Formula I; 3H-nitrendipine displacement, rabbit heart membranes; read-out: Nitrendipine Binding Assay IC50
Method: Assay for Inhibition of Nitrendipine Binding
Female, New Zealand white rabbits (1-2 kg) are sacrificed by cervical dislocation, and the heart is immediately removed, cleaned and chopped into small pieces. The tissue is homogenized in 5×times volume of 0.05M Hepes buffer, pH 7.4. The homogenate is centrifuged at 4000 g for 10 minutes, and the supernatant is re-centrifuged at 42,000×g for 90 minutes. The resulting membrane pellet is resuspended (0.7 ml/g weight) in 0.05M Hepes, pH 7.4 and stored at […] until used. Each tube of the binding assay contains ^3H-nitrendipine (0.05-0.50 nM), buffer, membranes (0.10 ml), and test compound in a total volume of 1.0 ml. After 90 minutes at 4° C., the bound nitrendipine is separated from the unbound by filtration on Whatman GF/C filters. After rinsing, the filters are dried and counted in a liquid scintillation counter.
Non-specific binding of ^3H-nitrendipine (that amount bound in the presence of excess unlabelled nitrendipine) is subtracted from the total bound to obtain specifically bound radiolabeled nitrendipine. The amount of specifically bound nitrendipine in the presence of a test compound is compared to that amount bound in the absence of a compound. A percent displacement (or inhibition) can then be calculated.

T1 sequence (P15381 whole entry, other chains not shown): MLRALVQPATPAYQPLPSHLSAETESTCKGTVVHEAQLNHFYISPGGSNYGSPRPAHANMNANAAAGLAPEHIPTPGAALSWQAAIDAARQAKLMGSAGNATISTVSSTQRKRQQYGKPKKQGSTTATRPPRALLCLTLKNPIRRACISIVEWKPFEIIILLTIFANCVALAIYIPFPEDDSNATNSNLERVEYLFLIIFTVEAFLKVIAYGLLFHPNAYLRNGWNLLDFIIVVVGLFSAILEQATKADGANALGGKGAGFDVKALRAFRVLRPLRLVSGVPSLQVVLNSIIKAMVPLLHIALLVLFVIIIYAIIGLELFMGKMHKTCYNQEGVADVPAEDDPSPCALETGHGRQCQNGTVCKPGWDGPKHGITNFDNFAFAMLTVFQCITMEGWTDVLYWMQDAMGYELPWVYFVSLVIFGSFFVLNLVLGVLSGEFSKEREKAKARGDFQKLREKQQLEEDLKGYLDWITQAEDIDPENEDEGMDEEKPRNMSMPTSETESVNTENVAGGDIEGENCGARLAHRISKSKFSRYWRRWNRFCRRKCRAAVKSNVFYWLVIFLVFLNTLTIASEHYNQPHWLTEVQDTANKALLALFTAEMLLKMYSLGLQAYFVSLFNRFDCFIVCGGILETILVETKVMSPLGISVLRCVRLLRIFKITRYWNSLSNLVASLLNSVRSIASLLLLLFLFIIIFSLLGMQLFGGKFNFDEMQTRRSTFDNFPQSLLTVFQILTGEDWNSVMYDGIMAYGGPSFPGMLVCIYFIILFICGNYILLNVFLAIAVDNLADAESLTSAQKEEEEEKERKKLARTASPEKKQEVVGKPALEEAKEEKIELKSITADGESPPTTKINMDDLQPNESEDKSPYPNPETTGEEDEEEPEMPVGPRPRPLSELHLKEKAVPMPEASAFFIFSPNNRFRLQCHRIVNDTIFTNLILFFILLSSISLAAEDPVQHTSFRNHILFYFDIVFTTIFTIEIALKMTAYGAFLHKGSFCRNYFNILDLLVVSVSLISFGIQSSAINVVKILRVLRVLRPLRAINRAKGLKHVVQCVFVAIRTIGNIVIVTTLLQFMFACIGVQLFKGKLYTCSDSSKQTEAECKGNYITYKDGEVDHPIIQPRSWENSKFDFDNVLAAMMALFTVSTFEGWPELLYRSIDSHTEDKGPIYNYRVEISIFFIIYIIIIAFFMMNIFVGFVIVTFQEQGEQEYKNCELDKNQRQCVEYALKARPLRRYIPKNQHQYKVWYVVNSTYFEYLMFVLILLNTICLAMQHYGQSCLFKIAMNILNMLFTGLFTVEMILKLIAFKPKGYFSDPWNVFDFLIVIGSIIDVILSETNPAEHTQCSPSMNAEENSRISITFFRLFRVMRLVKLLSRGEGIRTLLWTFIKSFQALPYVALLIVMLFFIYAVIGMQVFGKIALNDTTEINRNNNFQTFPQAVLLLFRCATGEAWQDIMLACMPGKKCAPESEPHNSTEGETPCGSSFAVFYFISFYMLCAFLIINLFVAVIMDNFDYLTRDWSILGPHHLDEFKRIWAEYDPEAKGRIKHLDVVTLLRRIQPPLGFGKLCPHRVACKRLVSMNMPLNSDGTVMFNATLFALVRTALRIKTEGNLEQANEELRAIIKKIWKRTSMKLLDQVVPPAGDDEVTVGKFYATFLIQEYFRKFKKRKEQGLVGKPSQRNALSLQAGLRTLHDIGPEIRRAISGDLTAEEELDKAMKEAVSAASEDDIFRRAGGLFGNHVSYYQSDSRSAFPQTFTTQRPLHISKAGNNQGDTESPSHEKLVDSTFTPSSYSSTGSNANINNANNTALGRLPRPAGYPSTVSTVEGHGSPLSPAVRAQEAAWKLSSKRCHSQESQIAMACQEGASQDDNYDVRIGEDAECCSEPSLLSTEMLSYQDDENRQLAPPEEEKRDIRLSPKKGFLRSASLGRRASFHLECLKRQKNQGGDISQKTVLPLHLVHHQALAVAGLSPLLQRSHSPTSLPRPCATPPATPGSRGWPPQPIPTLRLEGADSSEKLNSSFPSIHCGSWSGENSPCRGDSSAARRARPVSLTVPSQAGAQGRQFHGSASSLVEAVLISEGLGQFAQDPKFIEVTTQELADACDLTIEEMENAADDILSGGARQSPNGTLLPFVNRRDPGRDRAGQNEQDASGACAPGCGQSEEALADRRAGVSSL
T1 sequence (P13806 27-960 partner limits assumed, other chains not shown): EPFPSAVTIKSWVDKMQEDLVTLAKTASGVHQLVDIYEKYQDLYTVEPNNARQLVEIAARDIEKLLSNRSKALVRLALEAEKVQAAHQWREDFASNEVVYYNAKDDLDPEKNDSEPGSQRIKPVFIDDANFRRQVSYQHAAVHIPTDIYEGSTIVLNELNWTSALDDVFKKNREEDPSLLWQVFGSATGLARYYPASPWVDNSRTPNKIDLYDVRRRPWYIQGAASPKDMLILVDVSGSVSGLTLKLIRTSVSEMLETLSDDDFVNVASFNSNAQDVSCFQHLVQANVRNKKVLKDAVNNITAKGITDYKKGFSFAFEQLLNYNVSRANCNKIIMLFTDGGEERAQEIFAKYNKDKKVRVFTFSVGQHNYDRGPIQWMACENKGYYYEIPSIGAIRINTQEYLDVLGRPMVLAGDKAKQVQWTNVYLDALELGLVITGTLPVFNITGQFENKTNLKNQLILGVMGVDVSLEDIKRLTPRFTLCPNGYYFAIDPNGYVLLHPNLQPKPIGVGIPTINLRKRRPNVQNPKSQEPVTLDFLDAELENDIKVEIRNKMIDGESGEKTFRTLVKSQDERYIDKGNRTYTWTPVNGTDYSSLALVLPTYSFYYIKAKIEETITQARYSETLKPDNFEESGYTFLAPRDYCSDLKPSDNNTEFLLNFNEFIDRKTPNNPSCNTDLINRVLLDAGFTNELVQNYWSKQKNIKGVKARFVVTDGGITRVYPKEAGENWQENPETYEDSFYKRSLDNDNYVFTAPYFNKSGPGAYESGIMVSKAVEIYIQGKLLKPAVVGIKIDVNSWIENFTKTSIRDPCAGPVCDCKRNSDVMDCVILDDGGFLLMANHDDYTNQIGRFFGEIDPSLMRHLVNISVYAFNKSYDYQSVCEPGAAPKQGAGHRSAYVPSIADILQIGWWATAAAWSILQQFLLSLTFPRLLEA
T1 sequence (P13806 961-1106 partner limits assumed, other chains not shown): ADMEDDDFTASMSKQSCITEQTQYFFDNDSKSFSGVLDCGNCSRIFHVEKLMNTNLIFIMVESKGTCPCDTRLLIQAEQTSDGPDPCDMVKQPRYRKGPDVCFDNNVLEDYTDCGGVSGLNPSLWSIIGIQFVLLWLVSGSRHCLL

Structure (SMILES)	IC50
CC1=C(C(=O)OCCN(C)Cc2ccccc2)C(c2cccc(Cl)c2Cl)C2=C(CS(=O)(=O)c3ccccc3S2(=O)=O)N1 (stereo not shown) [Compound 2, 1H-[1,5]Benzodithiepino[3,2-b]pyridine-3-carboxylic acid, 4-(2,3-dichlorophenyl)-4,11-dihydro-2-methyl, 2-[methyl(phenylmethyl)amino]ethyl ester, 5,5,10,10-tetraoxide]	0.02 µM
CC1=C(C(=O)OCCN(C)Cc2ccccc2)C(c2ccccc2[N+](=O)[O-])C2=C(CS(=O)(=O)c3ccccc3S2(=O)=O)N1 (stereo not shown) [Compound 3, 1H-[1,5]Benzodithiepino[3,2-b]pyridine-3-carboxylic acid, 4,11-dihydro-2-methyl-4-(2-nitrophenyl), 2-[methyl(phenylmethyl)amino]ethyl ester, 5,5,10,10-tetraoxide]	0.034 µM
CC1=C(C(=O)OCCN(C)Cc2ccccc2)C(c2cccc(Cl)c2)C2=C(CS(=O)(=O)c3ccccc3S2(=O)=O)N1 (stereo not shown) [Compound 4, 1H-[1,5]Benzodithiepino[3,2-b]pyridine-3-carboxylic acid, 4-(3-chlorophenyl)-4,11-dihydro-2-methyl, 2-[methyl(phenylmethyl)amino]ethyl ester, 5,5,10,10-tetraoxide]	0.022 µM
COC(=O)C1=C(C)NC2=C(C1c1cccc(Cl)c1)S(=O)(=O)c1ccccc1[S+]([O-])C2 (stereo not shown) [Compound 6, 1H-[1,5]Benzodithiepino[3,2-b]pyridine-3-carboxylic acid, 4-(3-chlorophenyl)-4,11-dihydro-2-methyl, methyl ester, 5,5,10-trioxide]	0.02 µM
COC(=O)C1=C(C)NC2=C(C1c1cccc(Cl)c1Cl)S(=O)(=O)c1ccccc1[S+]([O-])C2 (stereo not shown) [Compound 7, 1H-[1,5]Benzodithiepino[3,2-b]pyridine-3-carboxylic acid, 4-(2,3-dichlorophenyl)-4,11-dihydro-2-methyl, methyl ester, 5,5,10-trioxide]	0.008 µM
COC(=O)C1=C(C)NC2=C(C1c1cccc(Cl)c1Cl)S(=O)(=O)c1ccccc1S(=O)(=O)C2 (stereo not shown) [Compound 8, 1H-[1,5]Benzodithiepino[3,2-b]pyridine-3-carboxylic acid, 4-(2,3-dichlorophenyl)-4,11-dihydro-2-methyl, methyl ester, 5,5,10,10-tetraoxide]	0.022 µM
COC(=O)C1=C(C)NC2=C(C1c1cccc(Cl)c1)S(=O)(=O)c1ccccc1S(=O)(=O)C2 (stereo not shown) [Compound 9, 1H-[1,5]Benzodithiepino[3,2-b]pyridine-3-carboxylic acid, 4-(3-chlorophenyl)-4,11-dihydro-2-methyl, methyl ester, 5,5,10,10-tetraoxide]	0.01 µM
COC(=O)C1=C(C)NC2=C(C1c1ccccc1[N+](=O)[O-])S(=O)(=O)c1ccccc1S(=O)(=O)C2 (stereo not shown) [Compound 10]	0.036 µM
CC1=C(C(=O)OCCN(C)Cc2ccccc2)C(c2c(F)c(F)c(F)c(F)c2F)C2=C(CS(=O)(=O)c3ccccc3S2(=O)=O)N1 (stereo not shown) [Compound 12, 1H-[1,5]Benzodithiepino[3,2-b]pyridine-3-carboxylic acid, 4,11-dihydro-2-methyl-4-(pentafluorophenyl), 2-[methyl(phenylmethyl)amino]ethyl ester, 5,5,10,10-tetraoxide]	0.021 µM
CC1=C(C(=O)OCCN(C)Cc2ccccc2)C(c2cccc([N+](=O)[O-])c2)C2=C(CS(=O)(=O)c3ccccc3S2(=O)=O)N1 (stereo not shown) [Compound 16, 1H-[1,5]Benzodithiepino[3,2-b]pyridine-3-carboxylic acid, 4,11-dihydro-2-methyl-4-(3-nitrophenyl), 2-[methyl(phenylmethyl)amino]ethyl ester, 5,5,10,10-tetraoxide]	0.024 µM
CC1=C(C(=O)OCCN(C)Cc2ccccc2)C(c2ccccc2Cl)C2=C(C[S+]([O-])c3ccccc3S2(=O)=O)N1 (stereo not shown) [Compound 18, 1H-[1,5]Benzodithiepino[3,2-b]pyridine-3-carboxylic acid, 4-(2-chlorophenyl)-4,11-dihydro-2-methyl, 2-[methyl(phenylmethyl)amino]ethyl ester, 5,5,10-trioxide]	0.023 µM

Results, then the compound that gave them:

IC50	Structure (SMILES)
0.014 µM	COC(=O)C1=C(C)NC2=C(C1c1ccccc1Cl)S(=O)(=O)c1ccccc1[S+]([O-])C2 (stereo not shown) [Compound 1, 1H-[1,5]Benzodithiepino[3,2-b]pyridine-3-carboxylic acid, 4-(2-chlorophenyl)-4,11-dihydro-2-methyl, methyl ester, 5,5,10-trioxide]
0.009 µM	COC(=O)C1=C(C)NC2=C(C1c1ccccc1Cl)S(=O)(=O)c1ccccc1S(=O)(=O)C2 (stereo not shown) [Compound 5, 1H-[1,5]Benzodithiepino[3,2-b]pyridine-3-carboxylic acid, 4-(2-chlorophenyl)-4,11-dihydro-2-methyl, methyl ester, 5,5,10,10-tetraoxide]
0.012 µM	COC(=O)C1=C(C)NC2=C(C1c1c(F)c(F)c(F)c(F)c1F)S(=O)(=O)c1ccccc1S(=O)(=O)C2 (stereo not shown) [Compound 11, 1H-[1,5]Benzodithiepino[3,2-b]pyridine-3-carboxylic acid, 4,11-dihydro-2-methyl-4-(pentafluorophenyl), methyl ester, 5,5,10,10-tetraoxide]
0.014 µM	COC(=O)C1=C(C)NC2=C(C1c1cccc(C(F)(F)F)c1F)S(=O)(=O)c1ccccc1S(=O)(=O)C2 (stereo not shown) [Compound 13, 1H-[1,5]Benzodithiepino[3,2-b]pyridine-3-carboxylic acid, 4-[2-fluoro-3-(trifluoromethyl)phenyl]-4,11-dihydro-2-methyl, methyl ester, 5,5,10,10-tetraoxide]
0.058 µM	CC1=C(C(=O)OCCN(C)Cc2ccccc2)C(c2cccc(C(F)(F)F)c2F)C2=C(CS(=O)(=O)c3ccccc3S2(=O)=O)N1 (stereo not shown) [Compound 14, 1H-[1,5]Benzodithiepino[3,2-b]pyridine-3-carboxylic acid, 4-[2-fluoro-3-(trifluoromethyl)phenyl]-4,11-dihydro-2-methyl, 2-[methyl(phenylmethyl)-amino]ethyl ester, 5,5,10,10-tetraoxide]
0.02 µM	COC(=O)C1=C(C)NC2=C(C1c1cccc([N+](=O)[O-])c1)S(=O)(=O)c1ccccc1S(=O)(=O)C2 (stereo not shown) [Compound 15, 1H-[1,5]Benzodithiepino[3,2-b]pyridine-3-carboxylic acid, 4,11-dihydro-2-methyl-4-(3-nitrophenyl), methyl ester, 5,5,10,10-tetraoxide]
0.062 µM	CC1=C(C(=O)OCCN(C)Cc2ccccc2)C(c2c(F)cccc2Cl)C2=C(CS(=O)(=O)c3ccccc3S2(=O)=O)N1 (stereo not shown) [Compound 17, 1H-[1,5]Benzodithiepino[3,2-b]pyridine-3-carboxylic acid, 4-(2-chloro-6-fluorophenyl)-4,11-dihydro-2-methyl, 2-[methyl(phenylmethyl)amino]ethyl ester, 5,5,10,10-tetraoxide]
0.018 µM	CC1=C(C(=O)OCCN(C)Cc2ccccc2)C(c2ccccc2Cl)C2=C(CS(=O)(=O)c3ccccc3S2(=O)=O)N1 (stereo not shown) [Compound 19, 1H-[1,5]Benzodithiepino[3,2-b]pyridine-3-carboxylic acid, 4-(2-chlorophenyl)-4,11-dihydro-2-methyl, 2-[methyl(phenylmethyl)amino]ethyl ester, 5,5,10,10-tetraoxide]

Same assay, conditions: Table 2, compounds of Formula II; 3H-nitrendipine displacement, rabbit heart membranes; read-out: Nitrendipine Binding IC50

Structure (SMILES)	IC50
CC1=C(C(=O)OCCO)C(c2c(F)cccc2Cl)C2=C(C[S+]([O-])c3ccccc3S2(=O)=O)N1 (stereo not shown) [Compound 20]	0.306 µM
CC1=C(C(=O)OCCO)C(c2c(F)cccc2Cl)C2=C(CS(=O)(=O)c3ccccc3S2(=O)=O)N1 (stereo not shown) [Compound 21]	6.07 µM
CC1=C(C(=O)OCCOC(=O)c2ccccc2)C(c2c(F)cccc2Cl)C2=C(CS(=O)(=O)c3ccccc3S2(=O)=O)N1 (stereo not shown) [Compound 23, 1H-[1,5]benzodithiepino[3,2-b]pyridine-3-carboxylic acid, 4-(2-chloro-6-fluorophenyl)-4,11-dihydro-2-methyl-, 2-(benzoyloxy)ethyl ester, 5,5,10,10-tetraoxide]	0.03 µM
CC1=C(C(=O)OCCOC(=O)C2CCCCC2)C(c2c(F)cccc2Cl)C2=C(CS(=O)(=O)c3ccccc3S2(=O)=O)N1 (stereo not shown) [Compound 24, 1H-[1,5]benzodithiepino[3,2-b]pyridine-3-carboxylic acid, 4-(2-chloro-6-fluorophenyl)-4,11-dihydro-2-methyl-, 2-[(cyclohexylcarbonyl)oxy]ethyl ester, 5,5,10,10-tetraoxide]	0.043 µM

The remaining lines, values ahead:

IC50	Structure (SMILES)
0.18 µM	CC(=O)OCCOC(=O)C1=C(C)NC2=C(C1c1c(F)cccc1Cl)S(=O)(=O)c1ccccc1S(=O)(=O)C2 (stereo not shown) [Compound 22, 1H-[1,5]benzodithiepino[3,2-b]pyridine-3-carboxylic acid, 4-(2-chloro-6-fluorophenyl)-4,11-dihydro-2-methyl-, 2-(acetyloxy)ethyl ester, 5,5,10,10-tetraoxide]
0.42 µM	CC1=C(C(=O)OCCNC(=O)OC(C)(C)C)C(c2c(F)cccc2Cl)C2=C(CS(=O)(=O)c3ccccc3S2(=O)=O)N1 (stereo not shown) [Compound 25, 1H-[1,5]benzodithiepino[3,2-b]pyridine-3-carboxylic acid, 4-(2-chloro-6-fluorophenyl)-4,11-dihydro-2-methyl-, 2-[[(1,1-dimethylethoxy)carbonyl]amino]ethyl ester, 5,5,10,10-tetraoxide]
